Experimental data as given in patent US4701448A, “Metal salt of organic phosphate and an antihyperlipemic agent containing the same” (Asahi Denka Kogyo Kabushiki Kaisha, priority 1985, dated 1987).
Read-outs that look alike come from different tables or passages of the source.

Experiments:
serum cholesterol = assay: Serum cholesterol lowering activity, oral, rabbit, 5 successive days; format: in vivo; settings: two times a day, 5 days
Procedure: (1) Serum cholesterol lowering activity the metal salt of organic phosphate according to the present invention was orally administered to a rabbit (body weight of about 3 Kg) two times a day (at 9:00 a.m. and 4:00 p.m.) for 5 successive days. After 5 days, blood was sampled and the total cholesterol value in serum was measured in a conventional manner.

mouse = assay: Acute toxicity, mouse; format: in vivo
Text: (§1) The acute toxicity of the metal salt of CB3A and of CK3A was examined by orally or peritoneally administrating an aqueous solution or dispersion thereof the results are shown in Table 2.
(§2) a . . . per os (oral administration)
(§3) b . . . intraperitoneal injection

rat = assay: Acute toxicity, rat; format: in vivo
Text: as §1, §2, §3

[1] = Stability, 5 weeks at 45° C. and humidity of 80% (HPLC remaining rate); format: physicochemical; settings: after 5 weeks, humidity of 80%, 50400 min
Procedure: One gram each of CB3A, CK3A and various metal salts thereof was placed in a beaker and the beaker was allowed to stand for 5 weeks in a constant temperature and humidity bath controlled at a temperature of 45° C. and a humidity of 80%. After 5 weeks, a remaining rate of the compound was analyzed quantitatively with a high performance liquid chromatography "Tri rotar" manufactured by Nippon Bunko K. K. (Japan).
A0 = initial amount of the compound prior to standing in the constan
temperature and humidity bath
A1 = final amount of the compound after 5 weeks

[2] = Water solubility, hygroscopic property and stability (statements in words); format: physicochemical; settings: listed as CB3K
Acidity (pKa) of CB3A = format: physicochemical
[3] = Absorbability and effect (statement in words)
synthesis of cholesterol = settings: in words; Japanese Patent Application No. 165490/1983, J. Antibiotics 38, 328-332 (1985); cited from earlier work

SMILES: CCC(C)C(=O)OC1CCC=C2C=CC(C)C(CCC(CC(O)CC(=O)O)OP(=O)(O)O)C21 (stereo not shown) [CB3A, reference compound]
- Total Serum cholesterol lowering rate (serum cholesterol; 1.5 mg/kg/day): 9.4%
- Total Serum cholesterol lowering rate (serum cholesterol; 6 mg/kg/day): 23.9%
- LD50 (mouse; intraperitoneal injection): > 500 mg/kg
- LD50 (mouse; per os (oral administration)): > 2000 mg/kg
- LD50 (rat; intraperitoneal injection): > 500 mg/kg
- LD50 (rat; per os (oral administration)): > 2000 mg/kg
- Remaining rate [1]: 14%
- stability [2]: unstable
- pKa (Acidity (pKa) of CB3A; carboxylic acid group in CB3A molecule, read-out: pKa3): 7.1
- pKa (Acidity (pKa) of CB3A; phosphoric acid group in CB3A molecule, read-out: pKa1): 2.2
- pKa (Acidity (pKa) of CB3A; phosphoric acid group in CB3A molecule, read-out: pKa2): 5
- absorbability and effect [3]: unsatisfactory
- activity of inhibiting the synthesis of cholesterol (synthesis of cholesterol): strong activity of inhibiting the synthesis of cholesterol
